In patent publication US9862730B2, “Imidazothiadiazole derivatives as protease activated receptor 4 (PAR4) inhibitors for treating platelet aggregation” (BRISTOL-MYERS SQUIBB COMPANY, priority 2012, dated 2018):

How the values were obtained:
[1] = biological target: T1, PAR4 (Homo sapiens (Human), UniProt Q96RI0); test: FLIPR assay in PAR4-expressing HEK293 cells (PAR4 antagonist activity, calcium mobilization); type: cell-based; settings: FLIPR assay as described in Example A
Outline: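 HEK293 cells stably expressing human PAR4 (also endogenous PAR1) in HBSS/10 mM HEPES, 0.67% DMSO final. Compound added and read for agonist activity, then 30 min room temperature before PAR4 agonist peptide; intracellular calcium mobilization monitored by FDSS/FLIPR.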

[2] = biological target: T1, PAR4; test: Gamma thrombin induced platelet aggregation assay in PRP (PRP assay); type: cell-based
Description: The compounds of the current invention can be tested in vitro for their ability to inhibit platelet aggregation induced by gamma-thrombin as shown in Example C. Gamma-thrombin, a proteolytic product of alpha-thrombin which no longer interacts with PAR1, selectively cleaves and activates PAR4 (Soslau, G. et al., “Unique pathway of thrombin-induced platelet aggregation mediated by glycoprotein Ib”, J. Biol. Chem., 276:21173-21183 (2001)). Platelet aggregation can be monitored in a 96-well microplate aggregation assay format or using standard platelet aggregometer. The aggregation assay can also be employed to test the selectivity of the compound for inhibiting platelet aggregation induced by PAR4 agonist peptides, PAR1 agonist peptide, ADP, or thromboxane analogue U46619.
The platelet rich plasma was isolated by centrifugation at 170 g for 14 minutes.
The ability of the compounds of the current invention to inhibit platelet aggregation induced by gamma-thrombin was tested in a 96-well microplate aggregation assay format. Briefly, PRP or washed platelet suspension (100 μl) was pre-incubated for 5 minutes at room temperature with varying concentrations of compounds. Aggregation was initiated by ˜10-50 nM gamma thrombin (Haematologic Technologies, Essex Junction, Vt.), which was titrated daily to achieve 80% platelet aggregation. Refludan at 1 U/mL (Berlex, Montville, N.J.) was added to the gamma thrombin sample to prevent PAR1 activation induced by residual alpha-thrombin contamination. The plate was then placed into a 37° C. Molecular Devices (Sunnyvale, Calif.) SPECTRAMAX® Plus Plate Reader. […] Data was collected with SOFTMAX® 4.71 software. The plate also included an untreated control sample which served as ODmax, while buffer containing no platelets was the ODmin. Platelet aggregation was determined by subtracting the ODmax from the ODmin for the 100% aggregation value. In experimental samples, the observed transmission was subtracted from the minimum value and then compared to the 100% aggregation value to determine the percentage aggregation. IC50 values are determined using Excel Fit software.
As indicated above, the PRP assay, an in vitro assay, measures the PAR4 antagonist activity of compounds tested as described in Example C.

T1 sequence (Q96RI0 18-385): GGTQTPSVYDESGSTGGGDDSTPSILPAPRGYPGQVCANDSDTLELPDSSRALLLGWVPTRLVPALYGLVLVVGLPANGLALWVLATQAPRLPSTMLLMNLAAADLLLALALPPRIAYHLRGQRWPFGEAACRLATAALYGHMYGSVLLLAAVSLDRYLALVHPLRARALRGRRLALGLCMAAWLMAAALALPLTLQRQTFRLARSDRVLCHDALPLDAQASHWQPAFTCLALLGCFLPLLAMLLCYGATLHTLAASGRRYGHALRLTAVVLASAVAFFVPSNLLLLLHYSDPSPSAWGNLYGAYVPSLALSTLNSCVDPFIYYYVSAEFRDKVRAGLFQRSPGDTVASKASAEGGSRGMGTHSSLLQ

SMILES | IC50 [1] [nM] | IC50 [2] [nM]
COc1cc(OCc2ccc(F)cc2)c2cc(-c3cn4nc(OC)sc4n3)oc2c1 [Example 303] | 5.68 | 3190
CSc1nn2cc(-c3nc4c(OCc5cccc(OCc6ccccc6)c5)cccc4o3)nc2s1 [Example 173] | 39.4 | 5280
CSc1nn2cc(-c3cc4c(OCc5ccccc5)cc(OCc5ccccc5)cc4o3)nc2s1 [Example 253] | 114 | > 30000
COc1nn2cc(-c3oc4c(OC)c(OC)ccc4c3C)nc2s1 [Example 36] | 1660 | > 30000
COCCOc1cccc2oc(-c3cn4nc(Br)sc4n3)cc12 [Example 252] | 121 | > 30000
COc1cc(OCc2cccc(OCc3cc(F)cc(C(F)(F)F)c3)c2)c2cc(-c3cn4nc(OC)sc4n3)oc2c1 [Example 356] | 1.66 | 109
COc1cc(OCc2cc(F)cc(OCc3ccccc3)c2)c2cc(-c3cn4nc(OC)sc4n3)oc2c1 [Example 350] | 0.76 | 85.7
CCOc1nn2cc(-c3cc4ccccc4o3)nc2s1 [Example 26] |  | > 30000
CSc1nn2cc(-c3cc4ccccc4s3)nc2s1 [Example 17] |  | > 30000
CCOc1nn2cc(-c3cc4c(OCc5cccc(OCc6ccccc6)c5)cc(OC)cc4o3)nc2s1 [Example 348] | 2.26 | 3080
COc1cc(OCc2cccc(OCc3cccc(C)n3)c2)c2cc(-c3cn4nc(OC)sc4n3)oc2c1 [Example 307] | 9.23 | 101
CSc1nn2cc(-c3cc4cccc(C)c4o3)nc2s1 [Example 22] | 217 | 8760
COc1cc(OCc2cccc(OCc3cccc(F)c3)c2)c2cc(-c3cn4nc(OC)sc4n3)oc2c1 [Example 327] |  | 37.9
Brc1nn2cc(-c3cc4ccccc4o3)nc2s1 [Example 68] | 55.3 | 16700
COc1nn2cc(-c3cc4c(OCc5ccccc5)cc(OCc5ccccc5)cc4o3)nc2s1 [Example 255] | 113 | > 30000
CCOc1cccc2cc(-c3cn4nc(OC)sc4n3)oc12 [Example 34] | 149 | > 30000
COc1nn2cc(-c3nc4c(C)cccc4o3)nc2s1 [Example 129] | 32 | > 30000
COc1cccc2cc(-c3cn4nc(SC)sc4n3)oc12 [Example 14] | 8.68 | 9440

SMILES | IC50 [1] [nM] | IC50 [2] [nM]
COc1cc(OCc2cccc(OCc3ccccn3)c2)c2cc(-c3cn4nc(OC)sc4n3)oc2c1 [Example 319] | 9.2 | 124
COc1ccc(Br)c2cc(-c3cn4nc(SC)sc4n3)oc12 [Example 282] | 49.6 | 5630
COc1cc(OCc2cccc(OCc3ccc(F)cc3)c2)c2cc(-c3cn4nc(OC)sc4n3)oc2c1 [Example 346] | 1.68 | 147
COc1ccc2nc(-c3cn4nc(OC)sc4n3)oc2c1 [Example 164] | 15.4 | 9160
CCc1nn2cc(-c3nc4cc(C(C)(C)C)ccc4o3)nc2s1 [Example 57] | 575 | > 30000
CCc1nn2cc(-c3nc4cc(F)c(F)cc4o3)nc2s1 [Example 38] | 66.6 | > 30000
COc1cc(OC)c2c(C)c(-c3cn4nc(OC)sc4n3)oc2c1 [Example 72] | 3.91 | 2330
COc1cc(OCc2cccc(OCc3cccc(OC)c3OC)c2)c2cc(-c3cn4nc(OC)sc4n3)oc2c1 [Example 353] | 2.25 | 10.5
CCC(C)(C)c1ccc2oc(-c3cn4nc(SC)sc4n3)nc2c1 [Example 131] | 107 | > 30000
COc1nn2cc(-c3nc4cc(F)ccc4o3)nc2s1 [Example 135] | 49.6 | > 30000
COc1nn2cc(-c3nc4ccccc4s3)nc2s1 [Example 5, 2-(2-Methoxyimidazo[2,1-b][1,3,4]thiadiazol-6-yl)benzo[d]thiazole] | 351 | > 30000
COc1nn2cc(-c3cc4ccc(OC)c(OC)c4o3)nc2s1 [Example 10, 6-(6,7-Dimethoxybenzofuran-2-yl)-2-methoxyimidazo[2,1-b][1,3,4]thiadiazole] | 1800 | > 30000
CSc1nn2cc(-c3nc4ccc(OC(C)C)cc4o3)nc2s1 [Example 161] | 79.9 | > 30000
COc1cc(OCc2cccc(OC(=O)c3ccccc3)c2)c2cc(-c3cn4nc(OC)sc4n3)oc2c1 [Example 355] | 1.65 | 33.3
COc1cc(OCc2cccc(OCc3ccccc3)c2)c2cc(-c3cn4nc(C(C)(F)F)sc4n3)oc2c1 [Example 347] | 2.74 | 579
CSc1nn2cc(-c3nc4cc(C(C)(C)C)ccc4o3)nc2s1 [Example 132] | 87.2 | 
CCc1nn2cc(-c3nc4ccc(OCc5ccncc5)cc4o3)nc2s1 [Example 86] | 1210 | 

Further lines, results first:

IC50 [1] [nM] | IC50 [2] [nM] | SMILES
41.5 | 2400 | COc1nn2cc(-c3cc4c(OCc5cccc(OCc6cccc(C)c6)c5)c(Cc5ccccc5)c(OC)cc4o3)nc2s1 [Example 387]
513 | 3270 | COc1nn2cc(-c3cc4c(OCc5cccc(OCc6ccccc6)c5)cc(OC)c(Cl)c4o3)nc2s1 [Example 415, 6-(4-((3-(Benzyloxy)benzyl)oxy)-7-chloro-6-methoxybenzofuran-2-yl)-2-methoxyimidazo[2,1-b][1,3,4]thiadiazole]
2.27 | 3410 | COc1cc(OCc2cccc(OCc3ccc(Oc4ccccc4)cc3)c2)c2cc(-c3cn4nc(OC)sc4n3)oc2c1 [Example 372]
5.3 | 151 | COc1cc(OCc2cccc(OCc3c(F)cccc3Cl)c2)c2cc(-c3cn4nc(OC)sc4n3)oc2c1 [Example 370]
4.56 | 566 | CCOc1cc(OCc2cccc(OCc3ccccc3)c2)c2cc(-c3cn4nc(OC)sc4n3)oc2c1 [Example 426]
10.5 | 5820 | COc1cc(OCc2cccc(OCc3ccccc3CCc3ccccc3)c2)c2cc(-c3cn4nc(OC)sc4n3)oc2c1 [Example 364]
5.05 | 568 | COc1cc(OCc2cccc(OCc3cccc(Oc4ccccc4)c3)c2)c2cc(-c3cn4nc(OC)sc4n3)oc2c1 [Example 384]
1.12 | 462 | COc1cc(OCc2cccc(OCc3ccccc3)c2)c2cc(-c3cn4nc([C@H](C)F)sc4n3)oc2c1 [Example 407]
7.56 | 6910 | COc1cc(OCc2cccc(OCc3cc(OC(C)C)cc(OC(C)C)c3)c2)c2cc(-c3cn4nc(OC)sc4n3)oc2c1 [Example 371]
1.44 | 105 | COc1ccc(COc2cccc(COc3cc(OC)cc4oc(-c5cn6nc(OC)sc6n5)cc34)c2)cc1 [Example 392]
2.14 | 66.2 | COc1cc(OCc2cccc(OCc3cccnc3)c2)c2cc(-c3cn4nc(OC)sc4n3)oc2c1 [Example 398]
8.68 | 594 | COc1cc(OCc2cccc(OCc3cccc(OCc4ccccc4)c3)c2)c2cc(-c3cn4nc(OC)sc4n3)oc2c1 [Example 383]
0.59 | 4.95 | COc1cc(OCc2cccc(OCc3csc(C)n3)c2)c2cc(-c3cn4nc(OC)sc4n3)oc2c1 [Example 399]
7.63 | 2500 | COc1cc(COc2cccc(COc3cc(OC)cc4oc(-c5cn6nc(OC)sc6n5)cc34)c2)cc(OCc2ccccc2)c1 [Example 373]
4.81 | 73.2 | COc1nn2cc(-c3cc4c(F)cc(OCc5cccc(OCc6ccccc6)c5)cc4o3)nc2s1 [Example 428]
35.9 | 2500 | COc1cc(OCc2cccc(OCc3ccc(C(C)(C)C)cc3)c2)c2cc(-c3cn4nc(OC)sc4n3)oc2c1 [Example 393]
7.27 | 677 | COc1cc(OCc2cccc(OCc3cc(Cl)cc(Cl)c3)c2)c2cc(-c3cn4nc(OC)sc4n3)oc2c1 [Example 376]
6.2 | 151 | COc1cc(OCc2cc(Cl)cc(OCc3ccccc3)c2)c2cc(-c3cn4nc(OC)sc4n3)oc2c1 [Example 402]
3.68 | 616 | COc1cc(OCc2cccc(OCc3ccc(OC(F)(F)F)cc3)c2)c2cc(-c3cn4nc(OC)sc4n3)oc2c1 [Example 394]
4.69 | 544 | COc1cc(OCc2cccc(OCc3ccccc3)c2)c2cc(-c3cn4nc(Cl)sc4n3)oc2c1 [Example 405]
